Data published in patent publication US20260166159A1, “KRAS G12D DEGRADATION AGENT, AND PREPARATION METHOD AND USE THEREFOR” (LEADINGTAC PHARMACEUTICAL (SHAOXING) CO., LTD., priority 2022, published 2026).

How the values were obtained:
Type in all cases: cell-based
[1] = test system: KRAS G12D mutant human pancreatic cancer cell HPAC; experiment: 3D cell proliferation inhibition assay, HPAC; settings: 168 h, 7 days, CTG
In short: (§1)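 A 7-day 3D growth at 37 °C, 5% CO2, 5×10^2 cells/well, with final compound concentrations of 10000–0.026 nM and 0.2% DMSO. Read-out: CTG luminescence (60 min, room temperature); % inhibition against DMSO-treated cells and medium blank, fitted versus log concentration to give IC50.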

KRAS-G12D [2] = target: T1, KRAS-G12D (Homo sapiens, UniProt P01116, G12D); experiment: KRAS-G12D degradation assay (Western Blot), A-427 cells; settings: A427 cells, 24 h; for Dmax: A-427
T1 construct: endogenous in cells; host or cells: A-427 (ATCC), AGS, AsPc-1, Panc 04.03
T1 sequence (P01116 1-188 isoform P01116-2 G12D): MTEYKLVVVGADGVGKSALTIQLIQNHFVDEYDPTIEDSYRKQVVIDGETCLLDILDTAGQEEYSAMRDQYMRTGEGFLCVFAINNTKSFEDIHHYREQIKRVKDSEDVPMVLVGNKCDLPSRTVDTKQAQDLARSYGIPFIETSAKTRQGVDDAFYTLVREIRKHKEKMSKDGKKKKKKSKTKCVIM
In short: (§2)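 Western blotting of lysates (5 μg protein) quantified KRAS against a β-actin reference after 24 h exposure to compound at final 0.03–3000 nM in 0.25% DMSO. Cells were A-427, AGS, AsPc-1 or Panc 04.03, all KRAS G12D, at 5×10^5/well. Degradation versus control yielded DC50 and Dmax.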

KRAS-G12D [3] = target: T1, KRAS-G12D; experiment: KRAS-G12D degradation assay (Western Blot), AGS cells; settings: 24 h
In short: as §2

KRAS-G12D [4] = target: T1, KRAS-G12D; experiment: KRAS-G12D degradation assay (Western Blot), Panc 04.03 cells; settings: 24 h
In short: as §2

[5] = test system: KRAS G12D mutant human pancreatic cancer cell Panc 04.03; experiment: 3D cell proliferation inhibition assay, Panc 04.03; settings: 168 h, Panc 04.03, 7 days, CTG
In short: as §1

[6] = test system: KRAS G12D mutant human metastatic pancreatic cancer cell AsPc-1; experiment: 3D cell proliferation inhibition assay, AsPc-1; settings: ASPC1, 168 h, AsPc-1, 7 days, CTG
In short: as §1

SMILES	IC50 [1] [nM]	DC50 (KRAS-G12D [2]; class symbols) [nM]	Dmax (KRAS-G12D [2]; class symbols) [%]	DC50 (KRAS-G12D [3]) [nM]	Dmax (KRAS-G12D [3]) [%]	DC50 (KRAS-G12D [4]) [nM]	Dmax (KRAS-G12D [4]) [%]	IC50 ([5]; class symbols) [nM]	IC50 ([6]; class symbols) [nM]	IC50 ([5]; numeric values) [nM]	IC50 ([6]; numeric values) [nM]	DC50 (KRAS-G12D [2]; numeric values) [nM]	Dmax (KRAS-G12D [2]; numeric values) [%]
C#Cc1c(F)ccc2cc(O)cc(-c3ncc4c(N5CC6CCC(C5)N6)nc(OCC5(CN6CCN(CC7CCC8(CC7)CCN(C(=O)c7ccc(Cl)c(N9CCC(=O)NC9=O)c7)CC8)CC6)CC5)nc4c3F)c12 [Example 6, 1-(5-(9-((4-((1-(((4-(3,8-diazabicyclo[3.2.1]octan-3-yl)-7-(8-ethynyl-7-fluoro-3-hydroxynaphthalen-1-yl)-8-fluoropyrido[4,3-d]pyrimidin-2-yl)oxy)methyl)cyclopropyl)methyl)piperazin-1-yl)methyl)-3-azaspiro[5.5]undecane-3-carbonyl)-2-chlorophenyl)dihydropyrimidine-2,4(1H,3H)-dione]	5.35	≤ 50	80 to 100	7.91	100	21.7	99.9	–	–	–	–	–	–
CCc1c(F)ccc2cc(O)cc(-c3ncc4c(N5CC6CCC(C5)N6)nc(OCC5(CN6CCN(CC7CCC8(CC7)CCN(C(=O)c7ccc(OC)c(N9CCC(=O)NC9=O)c7)CC8)CC6)CC5)nc4c3F)c12 [Example 15, 1-(5-(9-((4-((1-(((4-(3,8-diazabicyclo[3.2.1]octan-3-yl)-7-(8-ethyl-7-fluoro-3-hydroxynaphthalen-1-yl)-8-fluoropyrido[4,3-d]pyrimidin-2-yl)oxy)methyl)cyclopropyl)methyl)piperazin-1-yl)methyl)-3-azaspiro[5.5]undecane-3-carbonyl)-2-methoxyphenyl)dihydropyrimidine-2,4(1H,3H)-dione]	4.06	≤ 50	80 to 100	2.17	99.6	16.6	98.9	≤ 50	≤ 50	–	–	–	–
CCc1cccc2cc(O)cc(-c3ncc4c(N5CC6CCC(C5)N6)nc(OCC5(CN6CCN(CC7CCC8(CC7)CCN(C(=O)c7ccc(OC)c(N9CCC(=O)NC9=O)c7)CC8)CC6)CC5)nc4c3F)c12 [Example 20, 1-(5-(9-((4-((1-(((4-(3,8-diazabicyclo[3.2.1]octan-3-yl)-7-(8-ethyl-3-hydroxynaphthalen-1-yl)-8-fluoropyrido[4,3-d]pyrimidin-2-yl)oxy)methyl)cyclopropyl)methyl)piperazin-1-yl)methyl)-3-azaspiro[5.5]undecane-3-carbonyl)-2-methoxyphenyl)dihydropyrimidine-2,4(1H,3H)-dione]	–	≤ 50	80 to 100	19.9	100	15.1	100	–	–	10.5	3.27	–	–
C#Cc1c(F)ccc2cc(O)cc(-c3ncc4c(N5CC6CCC(C5)N6)nc(OCC5(CN6CCN(CCCCC7CCC8(CC7)CCN(C(=O)c7ccc(Cl)c(N9CCC(=O)NC9=O)c7)CC8)CC6)CC5)nc4c3F)c12 [Example 31, 1-(5-(9-(4-(4-((1-(((4-(3,8-diazabicyclo[3.2.1]octan-3-yl)-7-(8-ethynyl-7-fluoro-3-hydroxynaphthalen-1-yl)-8-fluoropyrido[4,3-d]pyrimidin-2-yl)oxy)methyl)cyclopropyl)methyl)piperazin-1-yl)butyl)-3-azaspiro[5.5]undecane-3-carbonyl)-2-chlorophenyl)dihydropyrimidine-2,4(1H,3H)-dione]	–	≤ 50	80 to 100	–	–	–	–	–	–	22.2	5.62	–	–
C#Cc1c(F)ccc2cc(O)cc(-c3ncc4c(N5CC6CCC(C5)N6)nc(OCC56CC(CN7CCN(CC8CCC9(CC8)CCN(C(=O)c8ccc(Cl)c(N%10CCC(=O)NC%10=O)c8)CC9)CC7)(C5)C6)nc4c3F)c12 [Example 33, 1-(5-(9-((4-((3-(((4-(3,8-diazabicyclo[3.2.1]octan-3-yl)-7-(8-ethynyl-7-fluoro-3-hydroxynaphthalen-1-yl)-8-fluoropyrido[4,3-d]pyrimidin-2-yl)oxy)methyl)bicyclo[1.1.1]pentan-1-yl)methyl)piperazin-1-yl)methyl)-3-azaspiro[5.5]undecane-3-carbonyl)-2-chlorophenyl)dihydropyrimidine-2,4(1H,3H)-dione]	–	≤ 50	80 to 100	–	–	–	–	–	–	–	–	–	–
C#Cc1c(F)ccc2cc(O)cc(-c3ncc4c(N5CC6CCC(C5)N6)nc(OCC5(CN6CCN(CC7CCC8(CC7)CCN(C(=O)c7ccc(C)c(N9CCC(=O)NC9=O)c7)CC8)CC6)CC5)nc4c3F)c12 [Example 36, 1-(5-(9-((4-((1-(((4-(3,8-diazabicyclo[3.2.1]octan-3-yl)-7-(8-ethynyl-7-fluoro-3-hydroxynaphthalen-1-yl)-8-fluoropyrido[4,3-d]pyrimidin-2-yl)oxy)methyl)cyclopropyl)methyl)piperazin-1-yl)methyl)-3-azaspiro[5.5]undecane-3-carbonyl)-2-methylphenyl)dihydropyrimidine-2,4(1H,3H)-dione]	1.19	≤ 50	80 to 100	–	–	–	–	–	–	–	–	–	–
C#Cc1c(F)ccc2cc(O)cc(-c3ccc4c(N5CC6CCC(C5)N6)nc(OCC5(CN6CCN(CC7CCC8(CC7)CCN(C(=O)c7ccc(C)c(N9CCC(=O)NC9=O)c7)CC8)CC6)CC5)nc4c3F)c12 [Example 42, 1-(5-(9-((4-((1-(((4-(3,8-diazabicyclo[3.2.1]octan-3-yl)-7-(8-ethynyl-7-fluoro-3-hydroxynaphthalen-1-yl)-8-fluoroquinazolin-2-yl)oxy)methyl)cyclopropyl)methyl)piperazin-1-yl)methyl)-3-azaspiro[5.5]undecane-3-carbonyl)-2-methylphenyl)dihydropyrimidine-2,4(1H,3H)-dione]	2.96	≤ 50	80 to 100	11.8	77.4	7.46	100	–	–	8.41	1.75	–	–
C#Cc1cccc2cc(O)cc(-c3ncc4c(N5CC6CCC(C5)N6)nc(OCC5(CN6CCN(CC7CCC8(CC7)CCN(C(=O)c7ccc(Cl)c(N9CCC(=O)NC9=O)c7)CC8)CC6)CC5)nc4c3F)c12 [Example 57, 1-(5-(9-((4-((1-(((4-(3,8-diazabicyclo[3.2.1]octan-3-yl)-7-(8-ethynyl-3-hydroxynaphthalen-1-yl)-8-fluoropyrido[4,3-d]pyrimidin-2-yl)oxy)methyl)cyclopropyl)methyl)piperazin-1-yl)methyl)-3-azaspiro [5.5]undecane-3-carbonyl)-2-chlorophenyl)dihydropyrimidine-2,4(1H,3H)-dione]	9.88	≤ 50	80 to 100	0.69	94.2	8.95	97.3	≤ 50	≤ 50	–	–	–	–
C#Cc1c(F)ccc2cc(O)cc(-c3ncc4c(N5CC6CCC(C5)N6)nc(OCC(C)CN5CCN(CC6CCC7(CC6)CCN(C(=O)c6ccc(OC)c(N8CCC(=O)NC8=O)c6)CC7)CC5)nc4c3F)c12 (stereo not drawn) [Example 84, 1-(5-(9-((4-(3-((4-(3,8-diazabicyclo[3.2.1]octan-3-yl)-7-(8-ethynyl-7-fluoro-3-hydroxynaphthalen-1-yl)-8-fluoropyrido[4,3-d]pyrimidin-2-yl)oxy)-2-methylpropyl)piperazin-1-yl)methyl)-3-azaspiro[5.5]undecane-3-carbonyl)-2-methoxyphenyl)dihydropyrimidine-2,4(1H,3H)-dione]	1.3	–	–	3.82	92.2	1.99	98.6	–	–	17	2.58	4.67	86.3
